Reference: ChEMBL document CHEMBL2375302, “Synthesis, antimicrobial, antiquorum-sensing, antitumor and cytotoxic activities of new series of fused [1,3,4]thiadiazoles” (Eur J Med Chem, 2013)
Values after ≈ are worked out from the molar mass of the structure shown.

Tests used:
MDA-MB-468 = assay: Growth inhibition of human MDA-MB-468 cells at 10 uM after 48 hrs by coulter counter analysis relative to control; assay type: functional; details: MDA-MB-468, 48 h, read-out: GI
NCI-H460 = assay: Growth inhibition of human NCI-H460 cells at 10 uM after 48 hrs by coulter counter analysis relative to control; assay type: functional; details: NCI-H460, 48 h, read-out: GI
[1] = Toxicity against brine shrimp larvae assessed as mortality at 1000 ug/mL after 24 hrs by binocular microscopic analysis relative to control; assay type: organism-based; details: artemia salina, in vivo
COLO 205 = assay: Growth inhibition of human COLO205 cells at 10 uM after 48 hrs by coulter counter analysis relative to control; assay type: functional; details: COLO 205, 48 h, read-out: GI
OVCAR-4 = assay: Growth inhibition of human OVCAR4 cells at 10 uM after 48 hrs by coulter counter analysis relative to control; assay type: functional; details: OVCAR-4, 48 h, read-out: GI
Hs-578T = assay: Growth inhibition of human Hs578T cells at 10 uM after 48 hrs by coulter counter analysis relative to control; assay type: functional; details: read-out: GI
A498 = assay: Growth inhibition of human A498 cells at 10 uM after 48 hrs by coulter counter analysis relative to control; assay type: functional; details: A498, 48 h, read-out: GI
Candida albicans = assay: Antifungal activity against Candida albicans at 5 mg/mL after 48 hrs; assay type: functional; details: read-out: DIZ
SR = assay: Growth inhibition of human SR cells at 10 uM after 48 hrs by coulter counter analysis relative to control; assay type: functional; details: read-out: GI
SF-295 = assay: Growth inhibition of human SF295 cells at 10 uM after 48 hrs by coulter counter analysis relative to control; assay type: functional; details: SF-295, 48 h, read-out: GI
[2] = Toxicity against brine shrimp larvae assessed as mortality at 10 ug/mL after 24 hrs by binocular microscopic analysis relative to control; assay type: organism-based; details: artemia salina, in vivo
MCF7 = assay: Growth inhibition of human MCF7 cells at 10 uM after 48 hrs by coulter counter analysis relative to control; assay type: functional; details: MCF7, 48 h, read-out: GI
OVCAR-8 = assay: Growth inhibition of human OVCAR8 cells at 10 uM after 48 hrs by coulter counter analysis relative to control; assay type: functional; details: OVCAR-8, 48 h, read-out: GI
SNB-75 = assay: Growth inhibition of human SNB75 cells at 10 uM after 48 hrs by coulter counter analysis relative to control; assay type: functional; details: SNB-75, 48 h, read-out: GI
Escherichia coli = assay: Antibacterial activity against Escherichia coli at 5 mg/mL after 24 hrs; assay type: functional; details: read-out: DIZ
SK-MEL-2 = assay: Growth inhibition of human SK-MEL-2 cells at 10 uM after 48 hrs by coulter counter analysis relative to control; assay type: functional; details: SK-MEL-2, 48 h, read-out: GI
Artemia salina = assay: (§1) Toxicity against brine shrimp larvae assessed as mortality after 24 hrs by binocular microscopic analysis; assay type: organism-based; details: in vivo, 24 h
[3] = as §1; assay type: organism-based; details: artemia salina, in vivo
SK-MEL-5 = assay: Growth inhibition of human SK-MEL-5 cells at 10 uM after 48 hrs by coulter counter analysis relative to control; assay type: functional; details: SK-MEL-5, 48 h, read-out: GI
UACC-62 = assay: Growth inhibition of human UACC62 cells at 10 uM after 48 hrs by coulter counter analysis relative to control; assay type: functional; details: UACC-62, 48 h, read-out: GI
UO-31 = assay: Growth inhibition of human UO31 cells at 10 uM after 48 hrs by coulter counter analysis relative to control; assay type: functional; details: UO-31, 48 h, read-out: GI
HOP-92 = assay: Growth inhibition of human HOP92 cells at 10 uM after 48 hrs by coulter counter analysis relative to control; assay type: functional; details: HOP-92, 48 h, read-out: GI
CAKI-1 = assay: Growth inhibition of human CAKI-1 cells at 10 uM after 48 hrs by coulter counter analysis relative to control; assay type: functional; details: CAKI-1, 48 h, read-out: GI
RPMI-8226 = assay: Growth inhibition of human RPMI8226 cells at 10 uM after 48 hrs by coulter counter analysis relative to control; assay type: functional; details: RPMI-8226, 48 h, read-out: GI
MDA-MB-231 = assay: Growth inhibition of human MDA-MB-231 cells at 10 uM after 48 hrs by coulter counter analysis relative to control; assay type: functional; details: MDA-MB-231, 48 h, read-out: GI
KM12 = assay: Growth inhibition of human KM12 cells at 10 uM after 48 hrs by coulter counter analysis relative to control; assay type: functional; details: KM12, 48 h, read-out: GI
BT-549 = assay: Growth inhibition of human BT549 cells at 10 uM after 48 hrs by coulter counter analysis relative to control; assay type: functional; details: BT-549, 48 h, read-out: GI
[4] = Growth inhibition of human HCC2998 cells at 10 uM after 48 hrs by coulter counter analysis relative to control; assay type: functional; details: HCC 2998, 48 h, read-out: GI
SK-OV-3 = assay: Growth inhibition of human SKOV3 cells at 10 uM after 48 hrs by coulter counter analysis relative to control; assay type: functional; details: SK-OV-3, 48 h, read-out: GI
OVCAR-3 = assay: Growth inhibition of human OVCAR3 cells at 10 uM after 48 hrs by coulter counter analysis relative to control; assay type: functional; details: OVCAR-3, 48 h, read-out: GI
OVCAR-5 = assay: Growth inhibition of human OVCAR5 cells at 10 uM after 48 hrs by coulter counter analysis relative to control; assay type: functional; details: OVCAR-5, 48 h, read-out: GI
[5] = Toxicity against brine shrimp larvae assessed as mortality at 100 ug/mL after 24 hrs by binocular microscopic analysis relative to control; assay type: organism-based; details: artemia salina, in vivo

## N#Cc1cnc2sc(S(N)(=O)=O)nn2c1=N
MDA-MB-468
  inhibition of growth at 10 µM: < 10%
NCI-H460
  inhibition of growth at 10 µM: < 10%
[1]
  mortality at 24 h, 1000 ug/mL: 96.6%
COLO 205
  inhibition of growth at 10 µM: < 10%
OVCAR-4
  inhibition of growth at 10 µM: < 10%
Hs-578T
  inhibition of growth at 10 µM: < 10%
A498
  inhibition of growth at 10 µM: 14.9%
Candida albicans
  zone of inhibition at 5000 µg/mL: < 2 mm
SR
  inhibition of growth at 10 µM: < 10%
SF-295
  inhibition of growth at 10 µM: < 10%
[2]
  mortality at 24 h, 10 ug/mL: 73.3%
MCF7
  inhibition of growth at 10 µM: < 10%
OVCAR-8
  inhibition of growth at 10 µM: < 10%
SNB-75
  inhibition of growth at 10 µM: < 10%
Escherichia coli
  zone of inhibition at 5000 µg/mL: < 2 mm
SK-MEL-2
  inhibition of growth at 10 µM: < 10%
Artemia salina
  LC90: 754.4 µg/mL (≈ 2940 µM)
[3]
  LC50 at 24 h: 419 µg/mL (≈ 1640 µM)
SK-MEL-5
  inhibition of growth at 10 µM: < 10%
UACC-62
  inhibition of growth at 10 µM: < 10%
UO-31
  inhibition of growth at 10 µM: < 10%
HOP-92
  inhibition of growth at 10 µM: 20.3%
CAKI-1
  inhibition of growth at 10 µM: 11.5%
RPMI-8226
  inhibition of growth at 10 µM: < 10%
MDA-MB-231
  inhibition of growth at 10 µM: 12%
KM12
  inhibition of growth at 10 µM: < 10%
BT-549
  inhibition of growth at 10 µM: < 10%
[4]
  inhibition of growth at 10 µM: < 10%
SK-OV-3
  inhibition of growth at 10 µM: < 10%
OVCAR-3
  inhibition of growth at 10 µM: < 10%
OVCAR-5
  inhibition of growth at 10 µM: < 10%
[5]
  mortality at 24 h, 100 ug/mL: 80%

## CCOC(=O)C1C(=O)N=C2SC(S(N)(=O)=O)=NN2C1c1ccc(N(C)C)cc1 (stereo unspecified)
MDA-MB-468
  inhibition of growth at 10 µM: < 10%
NCI-H460
  inhibition of growth at 10 µM: < 10%
[1]
  mortality at 24 h, 1000 ug/mL: 100%
COLO 205
  inhibition of growth at 10 µM: < 10%
OVCAR-4
  inhibition of growth at 10 µM: < 10%
Hs-578T
  inhibition of growth at 10 µM: 18.5%
A498
  inhibition of growth at 10 µM: 16.5%
Candida albicans
  zone of inhibition at 5000 µg/mL: 10 mm
SR
  inhibition of growth at 10 µM: 10.3%
SF-295
  inhibition of growth at 10 µM: < 10%
[2]
  mortality at 24 h, 10 ug/mL: 66.6%
MCF7
  inhibition of growth at 10 µM: 10.2%
OVCAR-8
  inhibition of growth at 10 µM: < 10%
SNB-75
  inhibition of growth at 10 µM: 10.1%
Escherichia coli
  zone of inhibition at 5000 µg/mL: < 2 mm
SK-MEL-2
  inhibition of growth at 10 µM: < 10%
Artemia salina
  LC90: 728.74 µg/mL (≈ 1710 µM)
[3]
  LC50 at 24 h: 405 µg/mL (≈ 951 µM)
SK-MEL-5
  inhibition of growth at 10 µM: < 10%
UACC-62
  inhibition of growth at 10 µM: 13.7%
UO-31
  inhibition of growth at 10 µM: 14.7%
HOP-92
  inhibition of growth at 10 µM: 51.2%
CAKI-1
  inhibition of growth at 10 µM: 21.1%
RPMI-8226
  inhibition of growth at 10 µM: < 10%
MDA-MB-231
  inhibition of growth at 10 µM: 34.6%
KM12
  inhibition of growth at 10 µM: < 10%
BT-549
  inhibition of growth at 10 µM: < 10%
[4]
  inhibition of growth at 10 µM: < 10%
SK-OV-3
  inhibition of growth at 10 µM: < 10%
OVCAR-3
  inhibition of growth at 10 µM: < 10%
OVCAR-5
  inhibition of growth at 10 µM: < 10%
[5]
  mortality at 24 h, 100 ug/mL: 83.3%

## N#Cc1cnc2sc(S(N)(=O)=O)nn2c1=O
MDA-MB-468
  inhibition of growth at 10 µM: < 10%
NCI-H460
  inhibition of growth at 10 µM: < 10%
[1]
  mortality at 24 h, 1000 ug/mL: 96.6%
COLO 205
  inhibition of growth at 10 µM: < 10%
OVCAR-4
  inhibition of growth at 10 µM: < 10%
Hs-578T
  inhibition of growth at 10 µM: 12.8%
A498
  inhibition of growth at 10 µM: 34.2%
Candida albicans
  zone of inhibition at 5000 µg/mL: 4 mm
SR
  inhibition of growth at 10 µM: < 10%
SF-295
  inhibition of growth at 10 µM: < 10%
[2]
  mortality at 24 h, 10 ug/mL: 50%
MCF7
  inhibition of growth at 10 µM: < 10%
OVCAR-8
  inhibition of growth at 10 µM: < 10%
SNB-75
  inhibition of growth at 10 µM: 10.3%
Escherichia coli
  zone of inhibition at 5000 µg/mL: 5 mm
SK-MEL-2
  inhibition of growth at 10 µM: < 10%
Artemia salina
  LC90: 777.87 µg/mL (≈ 3020 µM)
[3]
  LC50 at 24 h: 432 µg/mL (≈ 1680 µM)
SK-MEL-5
  inhibition of growth at 10 µM: < 10%
UACC-62
  inhibition of growth at 10 µM: < 10%
UO-31
  inhibition of growth at 10 µM: 10.5%
HOP-92
  inhibition of growth at 10 µM: 12.3%
CAKI-1
  inhibition of growth at 10 µM: < 10%
RPMI-8226
  inhibition of growth at 10 µM: < 10%
MDA-MB-231
  inhibition of growth at 10 µM: < 10%
KM12
  inhibition of growth at 10 µM: < 10%
BT-549
  inhibition of growth at 10 µM: < 10%
[4]
  inhibition of growth at 10 µM: < 10%
SK-OV-3
  inhibition of growth at 10 µM: < 10%
OVCAR-3
  inhibition of growth at 10 µM: < 10%
OVCAR-5
  inhibition of growth at 10 µM: < 10%
[5]
  mortality at 24 h, 100 ug/mL: 70%
